In US12252423B2, “Biodegradation of fluorochemicals” (The Trustees of Princeton University, priority 2018, dated 2025):
Entries after “also recorded” stand apart in the source; their conditions may differ.

Test system: pure and enrichment cultures
Experiment: Toxicity experiments: effect of PFAS on biomass over a 14-day incubation
Format: cell-based, Acidimicrobiaceae sp. A6 / Terrimonas sp. A8
Settings: for toxicity / effects on the overall bacterial numbers: 1 ppb, 10 ppb, 100 ppb and 1 ppm, 14 days incubation, pure and enrichment cultures; for biomass growth: 1 ppm, pure culture incubations, 14 days
Procedure: Toxicity experiments were conducted for both pure and enrichment cultures with selected PFAS Compounds. The concentrations to test were 1 ppb, 10 ppb, 100 ppb and 1 ppm. During 14 days incubation, no toxicity of Heptafluorobutyric acid (HFBA), Perfluorooctanoic acid (PFOA) was evidenced by cultures with these concentrations.
All Incubations were conducted in 20-ml serum vials with a pure strain A6 (Acidimicrobiaceae sp.)/A8 (Terrimonas sp.) or an enrichment culture, which contained 40.1-48.5% of Acidimicrobiaceae sp. A6, and in the anoxic inorganic Fe(III)-NH4^+ enrichment medium. The composition of the inorganic Fe(III)-NH4^+ enrichment medium (pH 4.5-5.0) consisted of 504 mg/L 2-line ferrihydrite [Fe2O3·0.5H2O], 177 mg/l NH4Cl, 77.9 mg/L (NH4)2SO4, 19.8 mg/L NaHCO3, 71.0 mg/L KHCO3, 9.00 mg/L KH2PO4, 100 mg/L MgSO4·7H2O, and 60.0 mg/L CaCl2·2H2O, in addition to 1 ml/L of a trace element solution, and 1 ml/L of a vitamin solution (ATCC® MD-VS™). An electron shuttling compound, 9,10-Anthraquinone-2,7-disulphonic acid (AQDS), was added to the pure strain A6 with a final concentration as 0.05 mg/L. To achieve strictly anoxic conditions, the headspace of each incubation vial was vacuumed until no bubble formation was observed and then flushed with a N2/CO2 (80:20) gas mixture, which was repeated 3 times. Then, for the PFAS degradation experiment, an equal volume of either HFBA, PFOA and PFBS was added to each group of vials, to yield final concentrations to 100 ppb. In the control group, autoclave control, without PFASs and without addition of NH4^+ were prepared. All These vials were placed on a shaker (100 rpm) in an anaerobic glove box for 14-day incubations at ambient temperature. Duplicate samples were collected destructively every week for Fe(II), NH4^+, and HFBA/PFOA/PFBS analyses.
Toxicity experiments, in terms of how each of these PFAS affects the biomass over a 14-day incubation, were conducted for both pure and enrichment cultures. The concentrations tested were 1 ppb, 10 ppb, 100 ppb and 1 ppm. During 14 days of incubation, no effects by Heptafluorobutyric acid (HFBA) and Perfluorooctanoic acid (PFOA) on the overall bacterial numbers were detected for these concentrations. However, the biomass growth was inhibited when the concentration of 2,2,2-Trifluoroethyl Nonafluorobutanesulfonate was 1 ppm in the incubation with the pure culture.

Structure (SMILES)	toxicity / effects on the overall bacterial numbers	biomass growth	biomass growth (listed as 2,2,2-Trifluoroethyl Nonafluorobutanesulfonate)
O=C(O)C(F)(F)C(F)(F)C(F)(F)F [HFBA, Heptafluorobutyric acid]	no toxicity; also recorded: no effects	–	–
O=C(O)C(F)(F)C(F)(F)C(F)(F)C(F)(F)C(F)(F)C(F)(F)C(F)(F)F [PFOA, Perfluorooctanoic acid]	no toxicity; also recorded: no effects	–	–
O=S(=O)(OCC(F)(F)F)C(F)(F)C(F)(F)C(F)(F)C(F)(F)F [PFBS, 2,2,2-Trifluoroethyl Nonafluorobutanesulfonate]	–	slightly inhibited	inhibited
